This is an account of results in patent publication US20060094790A1, “Use of sphingosine kinase activator as skin disease treating agent and method for treating skin diseases using the same” (priority 2004, published 2006).

The test system of one series is fibroblasts. The experiment in a line: Collagen synthesis in fibroblasts (PICP, collagen measuring kit). It counts as cell-based. Conditions: 72 hours; for Amount of PICP produced in fibroblasts (average ± SEM): non-treated control 47.1 ± 9.7; for collagen synthesis increase as compared to the non-treated control: fibroblasts, 0.3 or 1.0 μg/ml (concentration not given). As for the experimental part:
The following experiment was performed by using fibroblasts in order to evaluate the effect of sphingosine kinase activator upon collagen synthesis.
Each of K6PC4, K6PC-5, K6PC-7 and K6PC-9 was dissolved in DMSO at a concentration of 0.3 and 1.0 μg/ml. The solutions were used as samples and analyzed for collagen synthesis after incubation for 72 hours. 72 hours after the treatment of the sample, culture solution was discarded, cells were washed with serum-free DMEM three times, and cells were cultured again by using flesh serum-free DMEM. After incubation, supernatant in each well was combined and analyzed for the amount of PICP (procollagen type I C-peptide) by using a collagen measuring kit. The standard solution contained in the collagen measuring kit was diluted with a sample and absorption at 450 nm was measured to construct a standard concentration curve (see the following Table 2).
To an antibody-coated microtiter plate comprising a primary collagen antibody applied unifomrily thereto, 100 μl of an antibody-POD conjugate solution and the cell supernatant collected as described above were added, followed by incubation at 37° C. for 3 hours, to induce an antigen-antibody reaction. Then, the reaction mixture was subjected to washing and color developing. After the reaction, the reaction mixture developed a yellow color, wherein the yellowness depended on reaction degrees. Also, 96 well plates developing a yellow color were determined at 450 nm by using a microtiter plate reader.

In another series the test system is keratinocytes. The experiment in a line: Differentiation of keratinocytes (western blotting of involucrin and keratin-1). It counts as cell-based. Conditions: 10 μM, 48 hours, FIG. 2. As for the experimental part: In order to evaluate the effect of the above compound according to the present invention upon differentiation of keratinocytes, each of K6PC4, K6PC-5, K6PC-7 and K6PC-9 was dissolved in DMSO at a concentration of 10 μM and used as sample. Evaluation was performed by using the western blotting method. As differentiation markers, involucrin and keratine-1, which were differentiation markers of keratinocytes, were measured. Next, 48 hours after the treatment of samples, the culture solution was discarded and the cells were washed with PBS and collected by filtering. The collected cells were washed again and subjected to centrifugal separation to remove supernatant. The cells were dissolved in a solvent and subjected to centrifugal separation at 12,000 rpm for 10 minutes, thereby removing cell membranes, etc. Protein concentration was determined by the Bradford method. Proteins were separated by mini gel type SDS-PAGE (polyacrylamide gel electrohoresis) and transferred to a PVDF (polyvinylidene fluoride) membrane at 100V for 1 hour, so that gel-like proteins were subjected to blotting with a transfer membrane. Then, the membrane was colored with Ponceau S solution to determine whether transfer was accomplished or not. The membrane was blocked by using TTBS (TBS+0.1% Tween 20) solution containing 5% non-fat dried milk. In order to check the amount of involucrin as differentiation marker of keratinocytes, primary antibody involucrin (Neomarkers Co.) was diluted at a ratio of about 1/200 to 1.400, and keratin-1 (Covance Co.) was diluted at a ratio of about 1/1000. Reactions were performed overnight at 4° C. As secondary antibody, anti-mouse IgG and anti-rabbit IgG combined with horseradish peroxidase (HRP) was diluted at a ratio of 1:2000. Then, the secondary antibody was bonded to the primary antibody by making them react at room temperature for 1 hour. The membrane was washed with TTBS three times, reacted with an ECL substrate (Amersham Co.) for 1-3 minutes, and exposed to X-ray films.

The target of another series is T1, sphingosine kinase (Mus musculus, UniProt Q8CI15).
T1 construct: host or cells: F9-12 cells
T1 sequence (Q8CI15 1-381 isoform Q8CI15-3): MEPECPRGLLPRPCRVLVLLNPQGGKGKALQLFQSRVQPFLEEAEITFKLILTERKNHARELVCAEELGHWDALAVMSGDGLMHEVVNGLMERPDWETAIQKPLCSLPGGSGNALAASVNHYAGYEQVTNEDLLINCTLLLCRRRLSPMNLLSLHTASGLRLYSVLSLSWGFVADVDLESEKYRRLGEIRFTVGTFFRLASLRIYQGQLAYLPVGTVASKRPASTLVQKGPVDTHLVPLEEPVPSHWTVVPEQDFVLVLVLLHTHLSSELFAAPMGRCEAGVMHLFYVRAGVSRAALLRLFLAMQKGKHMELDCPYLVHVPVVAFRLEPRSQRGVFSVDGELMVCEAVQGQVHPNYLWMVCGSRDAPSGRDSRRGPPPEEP
The series can be described thus: Activation of sphingosine kinase (C17-sphingosine-1-phosphate production, HPLC). It is filed as cell-based. To be noted: F9-12 cells, 24 hours, 50 μM compound, PMA 300 nM; for C17-SIP Production: non-treated control 51.72; for increase in production of sphingosine-1-phosphate: versus non-treated control. As for the experimental part: The following test for activation of sphingosine kinase was performed to determine whether the effects of the above compounds upon intracellular calcium signal transfer as described in Example 1 were caused by activation of sphingosine kinase.
F9-12 cells were treated with 300 nM of PMA ([…]) as positive control, and 50 μM of each of K6PC4 and K6PC-5 for 24 hours and collected. Then, activity of sphingosine kinase was measured as production of C17-sphingosine-1-phosphate based on 50 μg of protein. Sphingosine-1-phospate was extracted from the collected cells by the steps of: (1) treating with trypsin-EDTA, (2) centrifugal separation at 1,500 rpm for 10 minutes, and (3) washing with PBS, followed by freeze-drying. Then, PBS was added to the freeze-dried product and the resultant product was treated with ultrasonic waves to destroy cells. Sphingosine-1-phosphate was determined by HPLC, and OPA (o-phthalaldehyde) reagent and boric acid buffer were added to the extracted sample and the mixture was reacted at room temperature for 20 minutes. For the HPLC quantitive analysis, fluorescence intensity was measured at each wavelength of 340 nm and 455 nm with a solution in 90% acetonitrile, and a ratio to the internal standard was calculated.

The subject of a further series is RBL-2H3 cell line. The series can be described thus: Intracellular calcium movement (fura-2 fluorescence). It is filed as cell-based. Conditions: RBL-2H3 cells, fura-2, FIGS. 1a to 1d. As for the experimental part: First, the following experiment for calcium movement was performed in order to determine whether the above sphingosine kinase activator compounds activate sphingosine-1-phosphate, so as to cause intracellular calcium movement, which is a typical activity specific to sphingosine-1-phosphate.
The sphingosine kinase activator compounds were determined for capability of inducing intracellular calcium movement by using a RBL-2H3 cell line, which is one of the typical cell lines showing intracellular calcium movement. The cells are cultured by using an RPMI 1640 culture medium and the cells were washed simultaneously with removal of the medium. Then, 10 μM of fura-2/Am and 250 μl M of sulfinpyrazone were added thereto, followed by incubation for 30 minutes. Cell pellets were obtained by centrifugal separation and the cell pellets were dispersed in Ca^2+-free Locke's solution. The dispersion was divided into a unit of 1×10^6 cells for use in treating samples. Next, the cells were introduced into a cuvet of a fluorescence microscope, each sphingosine kinase activator compound was added thereto, and intracellular calcium movement was observed by the fluorescence microscope (RF-5310PC, Spectrofluoro photometer, SHIMADZU). When intracellular calcium ions are detected, they cause fluorescence by bonding with fura-2. Therefore, a degree of calcium movement caused by a sample was evaluated by calculating a difference between the measurement of fura-2 ([…]) bonded with calcium and that of non-bonded fura-2 ([…]).

For a further series, the system named is hairless mouse. It is filed as in vivo. Conditions: mouse, in vivo. The text has this:
To evaluate effect of the sphingosine kinase activator upon inhibition of steroid side effects, a steroid was applied to a hairless mouse. Typically, side effects caused by long-term or excessive dose of steroids include skin atrophy expressed by thinning of skin and weakening of skin functions, and a rebound phenomenon including reoccurrence of conditions caused by stopping use of steroids. It is reported that the main cause for such side effects is inhibition of fibroblast activity and a decrease in collagen production (S. Hammer et al., J. Cell. Biochem, 91, 840-851, 2004), Therefore, it is expected that the compound according to the present invention enhances collagen synthesis and differentiation of keratinocytes, and thus inhibits such side effects caused by steroids. To perform a test, a steroid, i.e. 0.05% chlobetason-17-propionate, and […]-5 according to the present invention (1.0% in PEG:EtOH=7:3) were applied to a hairless mouse and changes in the skin were observed. The treating agents were applied to the back of a hairless mouse 9 times per day and the tissue was collected. Then, the epidermis and dermis were observed by carrying out the H & E staining method (hematoxylin and eosin staining) known to one skilled in the art.

As for `CCCCCCCC(=O)C(CCCCCC)C(=O)NCC(O)CO` (stereo not drawn) [K6PC-4, N-(2,3-dihydroxypropyl)-2-hexyl-3-oxo-decanamide], the “Amount of PICP produced in fibroblasts (average ± SEM)” value (“Amount … (average ± SEM)” for short) in the series with fibroblasts (0.3 μg/ml) stood at 62.01 ± 2.5. Also, the “Amount … (average ± SEM)” value in the series on fibroblasts (1.0 μg/ml) is 80.51 ± 4.4. For the same molecule, in the series with fibroblasts, the “collagen synthesis increase as compared to the non-treated control” value is given as “about 1.7 times”. Moreover, the “expression of differentiation markers (involucrin, keratin-1)” value (shortened to “expression of differentiation markers”) in the series on keratinocytes is recorded as “expressed the differentiation markers”. Besides, on sphingosine kinase, the “C17-SIP Production” value is 67.69 pmol/min/mg and the “increase in production of sphingosine-1-phosphate” value (shortened to “increase in production”) was “about 30%”. For the same molecule, the intracellular calcium movement result in the series with RBL-2H3 cell line is given as “caused intracellular calcium movement”.

In the case of `CCCCCCCC(=O)C(CCCCCC)C(=O)NC(C)(CO)CO` (stereo not drawn) [K6PC-7, N-(2-methyl-1,3-dihydroxyisopropyl)-2-hexyl-3-oxo-decanamide], the “Amount … (average ± SEM)” value in the series on fibroblasts (0.3 μg/ml) amounted to 90.3 ± 12.5; with fibroblasts (1.0 μg/ml), 87.3 ± 14.9. In addition, the “collagen synthesis increase as compared to the non-treated control” value with fibroblasts was “about 1.9 times”. Besides, in the series on keratinocytes, the “expression of differentiation markers” value is reported as “expressed the differentiation markers”. The “C17-SIP Production” value on sphingosine kinase was 75.51 pmol/min/mg. Also, the “increase in production” value on sphingosine kinase is on record as “about 46%”. In addition, the intracellular calcium movement result in the series on RBL-2H3 cell line was “caused intracellular calcium movement”.

`CCCCCCCC(=O)C(CCCCCC)C(=O)NCCO` (stereo not drawn) [K6PC-9, N-ethanol-2-hexyl-3-oxo-decanamide]: in the series on fibroblasts (0.3 μg/ml), the “Amount … (average ± SEM)” value worked out at 95.0 ± 5.2. Also, in the series with fibroblasts (1.0 μg/ml), the “Amount … (average ± SEM)” value is listed as 86.7 ± 8.2. For the same molecule, the “collagen synthesis increase as compared to the non-treated control” value in the series on fibroblasts is recorded as “about 2.0 times”. Further, the “expression of differentiation markers” value with keratinocytes was “expressed the differentiation markers”. For the same molecule, on sphingosine kinase, the “C17-SIP Production” value is 66.72 pmol/min/mg and the “increase in production” value is listed as “about 30%”. Besides, the intracellular calcium movement entry in the series with RBL-2H3 cell line is recorded as “caused intracellular calcium movement”.

Regarding `CCCCCCCCCCCCCC(=O)O[C@@H]1[C@@H](C)[C@@]2(O)[C@@H](C=C(CO)C[C@]3(O)C(=O)C(C)=C[C@@H]23)[C@@H]2C(C)(C)[C@]12OC(C)=O` [PMA, phorbol microstate acetate, reference compound], on sphingosine kinase, the “C17-SIP Production” value was determined as 76.76 pmol/min/mg and the “increase in production” value is reported as “about 48%”.

On to `CCC(=O)O[C@]1(C(=O)CCl)[C@@H](C)C[C@H]2[C@@H]3CCC4=CC(=O)C=C[C@]4(C)[C@@]3(F)[C@@H](O)C[C@@]21C` [chlobetason-17-propionate, reference compound], for which the “changes in epidermis and dermis (steroid applied alone)” value in the series on hairless mouse is “significant thinning of the epidermis and abnormal changes in the dermis”.
